# In ChEMBL document CHEMBL1156533 (2007):
# Calls of active or inactive are those of the source. No cut-off for these calls is given here.
# Experiments:
# Mus musculus [1] = species on record: Mus musculus; assay: Antiasthmatic effect in ovalbumin-challenged BALB/c mouse assessed as decrease in IL13 level in bronchoalveolar lavage fluid by ELISA; type: functional, Lung
# [2] = Inhibition of IL10 production in transgenic BALB/c mouse TH2 cells at 500 uM after 48 hrs; type: functional
# Mus musculus [3] = species on record: Mus musculus; assay: Antiasthmatic effect in ovalbumin-challenged BALB/c mouse assessed as decrease in eosinophil infiltration in bronchoalveolar lavage fluid; type: functional, Lung
# Mus musculus [4] = species on record: Mus musculus; assay: Antiasthmatic effect in ovalbumin-challenged BALB/c mouse assessed as decrease in IL5 level in bronchoalveolar lavage fluid by ELISA; type: functional, Lung
# [5] = Inhibition of IL13 production in transgenic BALB/c mouse TH2 cells at 500 uM after 48 hrs; type: functional
# [6] = Inhibition of IL5 production in transgenic BALB/c mouse TH2 cells at 500 uM after 48 hrs; type: functional
# [7] = Inhibition of IL4 production in transgenic BALB/c mouse TH2 cells at 500 uM after 48 hrs; type: functional
# [8] = Inhibition of IL13 production in transgenic BALB/c mouse TH2 cells at 10 uM after 48 hrs; type: functional
# Mus musculus [9] = species on record: Mus musculus; assay: Antiasthmatic effect in ovalbumin-challenged BALB/c mouse assessed as decrease in peribronchial eosinophil infiltration in bronchoalveolar lavage fluid; type: functional, organism-based; conditions: Lung
# Mus musculus [10] = assay: Antiasthmatic effect in ovalbumin-challenged transgenic TH2 cells transfected SCID mouse assessed as decrease in eosinophil infiltration in bronchoalveolar lavage fluid at 100 ug administered 4-6 hrs after challenge; type: functional, Lung
# Mus musculus [11] = species on record: Mus musculus; assay: Antiasthmatic effect in ovalbumin-challenged BALB/c mouse assessed as decrease in IL13 level in bronchoalveolar lavage fluid at 100 ug by ELISA; type: functional, Lung
# Mus musculus [12] = species on record: Mus musculus; assay: Antiasthmatic effect in ovalbumin-challenged BALB/c mouse assessed as decrease in eosinophil infiltration in bronchoalveolar lavage fluid at 100 ug; type: functional, Lung
# [13] = Inhibition of IFN-gamma production in transgenic TH1 cells at 50 uM after 48 hrs; type: functional
# Mus musculus [14] = species on record: Mus musculus; assay: Antiasthmatic effect in ovalbumin-challenged BALB/c mouse assessed as decrease in IL5 level in bronchoalveolar lavage fluid at 25 ug by ELISA; type: functional, Lung
# Jurkat [15] = assay: Inhibition of TCR-mediated ERK activation in human Jurkat cells at 100 uM by Western blotting; type: cell-based
# TH2 [16] = assay: Induction of apoptosis in ovalbumin-challenged transgenic BALB/c mouse TH2 cells transfected in SCID mouse assessed as decrease in viable cell in lungs; type: functional, cell-based
# Mus musculus [17] = assay: Antiasthmatic effect in ovalbumin-challenged transgenic TH2 cells transfected SCID mouse assessed as decrease in IL13 level in bronchoalveolar lavage fluid at 100 ug administered 4-6 hrs after challenge by ELISA; type: functional, Lung
# [18] = Inhibition of IFN-gamma production in transgenic TH1 cells at 500 uM after 48 hrs; type: functional
# TH2 [19] = assay: Induction of apoptosis in transgenic BALB/c mouse TH2 cells after 48 hrs by FACS; type: functional, cell-based
# TH2 [20] = assay: Antiproliferative activity in transgenic BALB/c mouse TH2 cells assessed as [3H]thymidine incorporation after […]; type: functional, cell-based
# TH1 = assay: Induction of apoptosis in transgenic TH1 cells after 48 hrs by FACS; type: functional, cell-based
# [21] = molecular target: 3-phosphoinositide-dependent protein kinase 1 (Homo sapiens) (UniProt O15530); assay: Inhibition of recombinant PDK1 autophosphorylation by in vitro kinase assay
# [22] = Inhibition of IL10 production in transgenic BALB/c mouse TH2 cells at 100 uM after 48 hrs; type: functional
# [23] = molecular target: 3-phosphoinositide-dependent protein kinase 1 (Homo sapiens) (UniProt O15530); assay: Inhibition of PDK1 phosphorylation in human Jurkat cells by Western blotting
# TH2 [24] = assay: Inhibition of TCR-mediated ERK activation in transgenic BALB/c mouse TH2 cells at 100 uM by Western blotting; type: cell-based
# Mus musculus [25] = species on record: Mus musculus; assay: Antiasthmatic effect in ovalbumin-challenged BALB/c mouse assessed as decrease in perivascular eosinophil infiltration in bronchoalveolar lavage fluid; type: functional, organism-based; conditions: Lung
# [26] = Inhibition of IL5 production in transgenic BALB/c mouse TH2 cells at 100 uM after 48 hrs; type: functional
# Jurkat [27] = assay: Inhibition of TCR-mediated JNK1 activation in human Jurkat cells at 100 uM by in vitro kinase assay; type: cell-based
# [28] = Inhibition of IL5 production in transgenic BALB/c mouse TH2 cells at 10 uM after 48 hrs; type: functional
# Jurkat [29] = assay: Inhibition of TCR-mediated NFAT activation in human Jurkat cells at 100 uM by Western blotting; type: cell-based
# Mus musculus [30] = assay: Antiasthmatic activity in ovalbumin-challenged BALB/c mouse assessed as reduction in airway resistance at 100 ug, intratracheally administered 4 hrs after challenge; type: functional, organism-based
# TH2 [31] = assay: Inhibition of TCR-mediated NF-kappaB activation in transgenic BALB/c mouse TH2 cells at 100 uM by EMSA; type: cell-based
# Jurkat [32] = assay: Inhibition of CD3/CD28-induced NF-kappaB activation in human Jurkat cells by EMSA; type: cell-based
# Jurkat [33] = assay: Induction of apoptosis in human Jurkat cells after 48 hrs by FACS; type: functional, cell-based
# [34] = Inhibition of IL4 production in transgenic BALB/c mouse TH2 cells at 100 uM after 48 hrs; type: functional
# Mus musculus [35] = species on record: Mus musculus; assay: Antiasthmatic effect in ovalbumin-challenged BALB/c mouse assessed as decrease in IL5 level in bronchoalveolar lavage fluid at 6 ug by ELISA; type: functional, Lung
# Jurkat [36] = assay: Inhibition of TCR-mediated NF-kappaB activation in human Jurkat cells at 100 uM by EMSA; type: cell-based
# [37] = molecular target: T-cell-specific surface glycoprotein CD28 (Homo sapiens) (UniProt P10747); assay: Inhibition of CD28-induced NF-kappaB activation in human Jurkat cells by EMSA; type: functional, cell-based
# [38] = Inhibition of IL5 production in transgenic BALB/c mouse TH2 cells at 50 uM after 48 hrs; type: functional
# [39] = Inhibition of IL13 production in transgenic BALB/c mouse TH2 cells at 50 uM after 48 hrs; type: functional
# Mus musculus [40] = species on record: Mus musculus; assay: Antiasthmatic effect in ovalbumin-challenged BALB/c mouse assessed as decrease in eosinophil infiltration in bronchoalveolar lavage fluid at 6 ug; type: functional, Lung
# Jurkat [41] = assay: Inhibition of TCR-mediated IkappaB degradation in human Jurkat cells after 30 mins by immunoblotting; type: cell-based
# Mus musculus [42] = species on record: Mus musculus; assay: Antiasthmatic effect in ovalbumin-challenged BALB/c mouse assessed as decrease in IL13 level in bronchoalveolar lavage fluid at 6 ug by ELISA; type: functional, Lung
# Mus musculus [43] = species on record: Mus musculus; assay: Antiasthmatic effect in ovalbumin-challenged BALB/c mouse assessed as decrease in IL5 level in bronchoalveolar lavage fluid at 100 ug by ELISA; type: functional, Lung
# Mus musculus [44] = assay: Antiasthmatic effect in ovalbumin-challenged transgenic TH2 cells transfected SCID mouse assessed as decrease in IL5 level in bronchoalveolar lavage fluid at 100 ug administered 4-6 hrs after challenge by ELISA; type: functional, Lung
# [45] = Inhibition of IFN-gamma production in transgenic TH1 cells at 100 uM after 48 hrs; type: functional
# TH2 [46] = assay: Inhibition of TCR-mediated NFAT activation in transgenic BALB/c mouse TH2 cells at 100 uM by Western blotting; type: cell-based
# Mus musculus [47] = species on record: Mus musculus; assay: Antiasthmatic effect in ovalbumin-challenged BALB/c mouse assessed as decrease in eosinophil infiltration in bronchoalveolar lavage fluid at 25 ug; type: functional, Lung
# [48] = Inhibition of IL10 production in transgenic BALB/c mouse TH2 cells at 10 uM after 48 hrs; type: functional
# [49] = Inhibition of IL4 production in transgenic BALB/c mouse TH2 cells at 50 uM after 48 hrs; type: functional
# HEK293 [50] = assay: Inhibition of PKC-theta-induced NF-kappaB activation in HEK293 cells by luciferase reporter gene assay; type: functional, cell-based; conditions: Homo sapiens
# [51] = Inhibition of IFN-gamma production in transgenic TH1 cells at 10 uM after 48 hrs; type: functional
# HEK293 [52] = assay: Inhibition of Carma1-induced NF-kappaB activation in HEK293 cells by luciferase reporter gene assay; type: functional, cell-based; conditions: Homo sapiens
# Mus musculus [53] = assay: Antiasthmatic activity in ovalbumin-challenged BALB/c mouse assessed as reduction in airway hyperresponsiveness at 100 ug, intratracheally administered 4 hrs after challenge; type: functional, organism-based
# [54] = Inhibition of IL4 production in transgenic BALB/c mouse TH2 cells at 10 uM after 48 hrs; type: functional
# Dendritic cell = assay: Induction of apoptosis in LPS-stimulated BALB/c mouse bone marrow-derived dendritic cells after 48 hrs by ELISA; type: functional, cell-based
# HEK293 [55] = assay: Inhibition of Bcl10-induced NF-kappaB activation in HEK293 cells by luciferase reporter gene assay; type: functional, cell-based; conditions: Homo sapiens
# [56] = Inhibition of IL10 production in transgenic BALB/c mouse TH2 cells at 50 uM after 48 hrs; type: functional
# TH2 [57] = assay: Inhibition of TCR-mediated JNK1 activation in transgenic BALB/c mouse TH2 cells at 100 uM by in vitro kinase assay; type: cell-based
# [58] = Inhibition of IL13 production in transgenic BALB/c mouse TH2 cells at 100 uM after 48 hrs; type: functional
# Mus musculus [59] = species on record: Mus musculus; assay: Antiasthmatic effect in ovalbumin-challenged BALB/c mouse assessed as decrease in IL13 level in bronchoalveolar lavage fluid at 25 ug by ELISA; type: functional, Lung
# Sequence of 3-phosphoinositide-dependent protein kinase 1 (Homo sapiens) (O15530 whole entry, looked up): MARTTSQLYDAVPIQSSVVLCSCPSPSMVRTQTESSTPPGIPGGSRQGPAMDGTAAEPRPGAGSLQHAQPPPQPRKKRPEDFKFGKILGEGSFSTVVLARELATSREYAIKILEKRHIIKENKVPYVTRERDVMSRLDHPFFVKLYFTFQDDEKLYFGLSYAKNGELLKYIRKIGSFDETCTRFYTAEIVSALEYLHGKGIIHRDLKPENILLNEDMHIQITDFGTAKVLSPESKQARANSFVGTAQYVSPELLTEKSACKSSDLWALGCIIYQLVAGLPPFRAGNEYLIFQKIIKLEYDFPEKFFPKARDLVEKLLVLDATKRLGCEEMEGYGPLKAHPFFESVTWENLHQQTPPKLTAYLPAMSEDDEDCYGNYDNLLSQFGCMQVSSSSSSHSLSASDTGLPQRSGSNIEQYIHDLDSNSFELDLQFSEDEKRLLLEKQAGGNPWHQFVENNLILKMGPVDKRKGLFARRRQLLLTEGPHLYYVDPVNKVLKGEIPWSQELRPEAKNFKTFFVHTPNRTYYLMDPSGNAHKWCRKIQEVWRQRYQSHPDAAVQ
# Sequence of T-cell-specific surface glycoprotein CD28 (Homo sapiens) (P10747 whole entry): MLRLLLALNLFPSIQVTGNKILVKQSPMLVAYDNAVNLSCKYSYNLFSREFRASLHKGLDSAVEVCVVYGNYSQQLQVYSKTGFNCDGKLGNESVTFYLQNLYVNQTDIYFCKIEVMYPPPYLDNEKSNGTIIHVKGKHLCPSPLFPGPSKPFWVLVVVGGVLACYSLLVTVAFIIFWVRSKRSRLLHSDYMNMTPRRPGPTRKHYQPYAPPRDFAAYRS
compound,measurement,setting,value
O=C(O)c1cccnc1C(=O)O [QUINOLINIC ACID],Activity,Mus musculus [1],263 pg/mL
same,Activity,[2],8.36 ng/mL
same,Activity,Mus musculus [3],335000
same,Activity,Mus musculus [4],312 pg/mL
same,Activity,[5],15.4 ng/mL
same,Activity,[6],4.19 ng/mL
same,Activity,[7],11.3 ng/mL
Nc1c(O)cccc1C(=O)O,Activity,[8],14.9 ng/mL
same,Activity,Mus musculus [9],Active
same,Activity,Mus musculus [10],11000
same,Activity,Mus musculus [1],66 pg/mL
same,Activity,Mus musculus [11],88 pg/mL
same,Activity,Mus musculus [12],84000
same,Activity,[13],1 ng/mL
same,Activity,Mus musculus [14],144 pg/mL
same,Activity,Jurkat [15],inactive
same,Activity,TH2 [16],Active
same,Activity,Mus musculus [17],<10 pg/mL
same,Activity,[18],1.7 ng/mL
same,Activity,TH2 [19],Active
same,Activity,TH2 [20],Active
same,Activity,TH1,Active
same,Activity,Mus musculus [3],155000
same,Activity,[21],Dose-dependent effect
same,Activity,[22],2.37 ng/mL
same,Activity,[23],Active
same,Activity,Mus musculus [4],141 pg/mL
same,Activity,TH2 [24],inactive
same,Activity,Mus musculus [25],Active
same,Activity,[26],<0.1 ng/mL
same,Activity,Jurkat [27],inactive
same,Activity,[28],3.24 ng/mL
same,Activity,Jurkat [29],inactive
same,Activity,Mus musculus [30],Active
same,Activity,TH2 [31],Active
same,Activity,Jurkat [32],Active
same,Activity,Jurkat [33],Active
same,Activity,[34],2 ng/mL
same,Activity,Mus musculus [35],219 pg/mL
same,Activity,Jurkat [36],Active
same,Activity,[37],Active
same,Activity,[38],1.15 ng/mL
same,Activity,[39],4.3 ng/mL
same,Activity,Mus musculus [40],190000
same,Activity,Jurkat [41],inactive
same,Activity,Mus musculus [42],147 pg/mL
same,Activity,Mus musculus [43],153 pg/mL
same,Activity,Mus musculus [44],<10 pg/mL
same,Activity,[45],1.8 ng/mL
same,Activity,TH2 [46],inactive
same,Activity,Mus musculus [47],58000
same,Activity,[48],7.77 ng/mL
same,Activity,[49],6.7 ng/mL
same,Activity,HEK293 [50],inactive
same,Activity,[51],29.7 ng/mL
same,Activity,HEK293 [52],inactive
same,Activity,Mus musculus [53],Active
same,Activity,[54],11.5 ng/mL
same,Activity,Dendritic cell,inactive
same,Activity,HEK293 [55],inactive
same,Activity,[56],4.88 ng/mL
same,Activity,TH2 [57],inactive
same,Activity,[58],1.7 ng/mL
same,Activity,Mus musculus [59],91 pg/mL
